The structures appear in SMILES notation.

Sequence of Mcl-1 protein (Q07820 whole entry): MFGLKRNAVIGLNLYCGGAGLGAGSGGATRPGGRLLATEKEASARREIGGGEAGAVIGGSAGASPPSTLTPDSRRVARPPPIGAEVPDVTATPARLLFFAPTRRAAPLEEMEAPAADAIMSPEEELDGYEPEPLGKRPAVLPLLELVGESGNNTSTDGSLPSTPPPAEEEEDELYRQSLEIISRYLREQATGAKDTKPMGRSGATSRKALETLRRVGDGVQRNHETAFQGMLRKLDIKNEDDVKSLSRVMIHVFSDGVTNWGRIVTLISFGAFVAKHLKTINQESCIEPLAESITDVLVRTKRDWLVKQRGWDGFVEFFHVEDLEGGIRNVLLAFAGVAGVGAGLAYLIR

The target of one experiment is Mcl-1 protein (UniProtKB primary accession number: Q07820) (Homo sapiens, UniProt Q07820). Description: Inhibition of Mcl-1 by fluorescence polarisation, Method 1. Type of experiment: binding. The note with it: fluorescence polarisation test; Method 2 values are underlined in the patent (underlining not visible here); read-out: IC50 (M) Mcl-1 FP. Summed up:
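Buffer of 10 mM HEPES pH 7.4 with 150 mM NaCl and 0.05% Tween 20 held 5 nM Mcl-1 and 1 nM fluorescein-tagged ligand (final). Compounds were tested as 11-point serial dilutions at 5% final DMSO, and binding was read by FP.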
Turning to `Cc1c(-c2c(-c3ccc(F)cc3)sc3ncnc(O[C@H](Cc4ccccc4OCc4ccnn4C)C(=O)O)c23)ccc(OCCN2CCN(C)CC2)c1Cl` [Example 69, (2R)-2-{[(5Sa)-5-{3-chloro-2-methyl-4-[2-(4-methylpiperazin-1-yl)ethoxy]phenyl}-6-(4-fluorophenyl)thieno[2,3-d]pyrimidin-4-yl]oxy}-3-{2-[(1-methyl-1H-pyrazol-5-yl)methoxy]phenyl}propanoic acid], the IC50 (as a rule, the point on the concentration scale where inhibition reaches its midpoint) came to 9.7e-08 M. The same measure, in the same setting: under `COc1ccccc1CC(Oc1ncnc2sc(-c3ccco3)c(-c3ccc(OCCN4CC[N+](C)([O-])CC4)c(Cl)c3C)c12)C(=O)O` [Example 296, (2R)-2-{[(5Sa)-5-{3-chloro-2-methyl-4-[2-(4-methyl-4-oxidopiperazin-1-yl)ethoxy]phenyl}-6-(furan-2-yl)thieno[2,3-d]pyrimidin-4-yl]oxy}-3-(2-methoxyphenyl)propanoic acid] stands 9.3e-09 M; under `Cc1c(-c2c(-c3ccc(F)cc3)sc3ncnc(OC(Cc4ccccc4OCc4cnccn4)C(=O)O)c23)ccc(OCCN2CCN(C)CC2)c1Cl` [Example 91, (2R)-2-{[(5Sa)-5-{3-chloro-2-methyl-4-[2-(4-methylpiperazin-1-yl)ethoxy]phenyl}-6-(4-fluorophenyl)thieno[2,3-d]pyrimidin-4-yl]oxy}-3-[2-(pyrazin-2-ylmethoxy)phenyl]propanoic acid], 7.3e-09 M. With `Cc1cnccc1-c1nccc(COc2ccccc2CC(Oc2ncnc3sc(-c4ccc(F)cc4)c(-c4ccc(OCCN5CCN(C)CC5)c(Cl)c4C)c23)C(=O)O)n1` [Example 120, (2R)-2-{[(5Sa)-5-{3-chloro-2-methyl-4-[2-(4-methylpiperazin-1-yl)ethoxy]phenyl}-6-(4-fluorophenyl)thieno[2,3-d]pyrimidin-4-yl]oxy}-3-(2-{[2-(3-methylpyridin-4-yl)pyrimidin-4-yl]methoxy}phenyl)propanoic acid], the half-maximal inhibitory concentration (IC50) is 3.8e-09 M. `Cc1c(-c2c(-c3ccc(F)o3)sc3ncnc(OC(Cc4ccccc4OCc4cnccn4)C(=O)O)c23)ccc(OCCN2CCN(C)CC2)c1Cl` [Example 189, (2R)-2-{[(5Sa)-5-{3-chloro-2-methyl-4-[2-(4-methylpiperazin-1-yl)ethoxy]phenyl}-6-(5-fluorofuran-2-yl)thieno[2,3-d]pyrimidin-4-yl]oxy}-3-[2-(pyrazin-2-ylmethoxy)phenyl]propanoic acid]: the IC50 stood at 5.5e-09 M. On the same count and under the same terms, in the case of `Cc1c(-c2c(-c3ccc(F)cc3)sc3ncnc(OC(Cc4ccccc4OCc4ccnc(-c5cccnc5)n4)C(=O)O)c23)ccc(OCCN2CCN(C)CC2)c1Cl` [Example 32, (2R)-2-{[(5Sa)-5-{3-chloro-2-methyl-4-[2-(4-methylpiperazin-1-yl)ethoxy]phenyl}-6-(4-fluorophenyl)thieno[2,3-d]pyrimidin-4-yl]oxy}-3-(2-{[2-(pyridin-3-yl)pyrimidin-4-yl]methoxy}phenyl)propanoic acid] it was 4.8e-09 M; in that of `COc1ccccc1-c1nccc(COc2ccccc2CC(Oc2ncnc3sc(-c4ccc(F)cc4)c(-c4ccc(OCCN(C)C)c(Cl)c4C)c23)C(=O)O)n1` [Example 135, (2R)-2-{[(5Sa)-5-{3-chloro-4-[2-(dimethylamino)ethoxy]-2-methylphenyl}-6-(4-fluorophenyl)thieno[2,3-d]pyrimidin-4-yl]oxy}-3-(2-{[2-(2-methoxyphenyl)pyrimidin-4-yl]methoxy}phenyl)propanoic acid], 8.6e-09 M; in that of `Cc1c(-c2c(-c3ccco3)sc3ncnc(O[C@@H](C(=O)O)[C@@H](O)c4ccccc4)c23)ccc(OCCN2CCN(C)CC2)c1Cl` (single isomer, unassigned) [Example 342], 3.5e-07 M.

The same experiment, now with this note: fluorescence polarisation; Method 1, or Method 2; read-out: IC50 (M) Mcl-1 FP.
For `CCc1sc2ncnc(OC(Cc3ccccc3)C(=O)O)c2c1-c1ccc(O)cc1C` [Example 448, (2R)-2-{[6-ethyl-(5Ra)-5-(4-hydroxy-2-methylphenyl)thieno[2,3-d]pyrimidin-4-yl]oxy}-3-phenylpropanoic acid], the IC50 worked out at 4.4e-07 M. As to `CCc1sc2ncnc(OC(Cc3ccccc3)C(=O)O)c2c1-c1ccc(OCCN2CCN(C)CC2)cc1C` [Example 416, (2R)-2-[(6-ethyl-(5Ra)-5-{2-methyl-4-[2-(4-methylpiperazin-1-yl)ethoxy]phenyl}thieno[2,3-d]pyrimidin-4-yl)oxy]-3-phenylpropanoic acid], the IC50 is 7e-07 M. In the case of `COc1ccccc1CC(Oc1ncnc2sc(-c3ccccc3F)c(-c3ccc(OCCN4CCN(C)CC4)c(Cl)c3C)c12)C(=O)O` [Example 566, (2R)-2-{[(5Sa)-5-{3-chloro-2-methyl-4-[2-(4-methylpiperazin-1-yl)ethoxy]phenyl}-6-(2-fluorophenyl)thieno[2,3-d]pyrimidin-4-yl]oxy}-3-(2-methoxyphenyl)propanoic acid], the IC50 was 3e-08 M. For `CCc1sc2ncnc(OC(Cc3ccccc3)C(=O)O)c2c1-c1ccc(OCCN(C)C)cc1C` [Example 409, (2R)-2-[((5Sa)-5-{4-[2-(dimethylamino)ethoxy]-2-methylphenyl}-6-ethylthieno[2,3-d]pyrimidin-4-yl)oxy]-3-phenylpropanoic acid], the IC50 is 2e-07 M. Take `CC#Cc1sc2ncnc(O[C@H](Cc3ccccc3OC)C(=O)O)c2c1-c1ccc(OCCN2CCN(C)CC2)c(F)c1C` [Example 686, (2R)-2-{[(5Ra)-5-{3-fluoro-2-methyl-4-[2-(4-methylpiperazin-1-yl)ethoxy]phenyl}-6-(prop-1-yn-1-yl)thieno[2,3-d]pyrimidin-4-yl]oxy}-3-(2-methoxyphenyl)propanoic acid]: the IC50 amounted to 1e-06 M.

`COc1ccccc1C[C@@H](Oc1ncnc2sc(-c3ccc(F)cc3)c(-c3cc(F)c(OCCN4CCN(C)CC4)c(Cl)c3C)c12)C(=O)O` (single isomer, unassigned) [Example 665]: the IC50 was 3.9e-06 M. On the same count and under the same terms, in the case of `COc1ccccc1CC(Oc1ncnc2sc(-c3cccc(Cl)c3)c(-c3ccc(OCCN4CCN(C)CC4)c(Cl)c3C)c12)C(=O)O` [Example 550, (2R)-2-{[(5Sa)-5-{3-chloro-2-methyl-4-[2-(4-methylpiperazin-1-yl)ethoxy]phenyl}-6-(3-chlorophenyl)thieno[2,3-d]pyrimidin-4-yl]oxy}-3-(2-methoxyphenyl)propanoic acid] it was 4.8e-08 M. Same read-out and setting: under `CCc1sc2ncnc(OC(Cc3ccccc3)C(=O)O)c2c1-c1cc(Cl)c(O)c(Cl)c1C` [Example 429, (2R)-2-{[(5Ra)-5-(3,5-dichloro-4-hydroxy-2-methylphenyl)-6-ethylthieno[2,3-d]pyrimidin-4-yl]oxy}-3-phenylpropanoic acid] stands 5.3e-08 M; under `Cc1c(-c2c(-c3ccc(F)cc3)sc3ncnc(OC(Cc4ccccc4OCC(F)(F)F)C(=O)O)c23)ccc(OCCN2CCOCC2)c1Cl` [Example 657, (2R)-2-{[(5Sa)-5-{3-chloro-2-methyl-4-[2-(morpholin-4-yl)ethoxy]phenyl}-6-(4-fluorophenyl)thieno[2,3-d]pyrimidin-4-yl]oxy}-3-[2-(2,2,2-trifluoroethoxy)phenyl]propanoic acid], 2.1e-08 M.

Still in this experiment, the particulars now being: partial inhibitors; @ 10 uM test compound.
On to `CC#Cc1sc2ncnc(O[C@@H](Cc3cccc4occc34)C(=O)O)c2c1-c1ccc(OCCN2CCN(C)CC2)c(Cl)c1C` [Example 491, (2S)-3-(1-benzofuran-4-yl)-2-{[(5Ra)-5-{3-chloro-2-methyl-4-[2-(4-methylpiperazin-1-yl)ethoxy]phenyl}-6-(prop-1-yn-1-yl)thieno[2,3-d]pyrimidin-4-yl]oxy}propanoic acid], for which the “percentage fluorescence polarisation inhibition, Mcl-1 FP” value was 28.3% @ 10 uM.

For the origin of these results see patent US9670227B2, “Thienopyrimidine derivatives, a process for their preparation and pharmaceutical compositions containing them” (LES LABORATOIRES SERVIER, priority 2013, dated 2017).
